Reference: ChEMBL document CHEMBL1201862, “PubChem BioAssay data set” (2004)
Calls of active or inactive are those of the source. For most assays here, no stated cut-off is given here; in the data, actives have a measured EC50 and inactives only a lower limit.

What was measured:
[1] = molecular target: T1, Ubiquitin-conjugating enzyme E2 N (Homo sapiens, UniProt P61088); type: functional;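 further: Dose-response confirmation in a TR-FRET assay detecting UBC13-driven polyubiquitin chain formation, inhibition measured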
T1 sequence (P61088 whole entry): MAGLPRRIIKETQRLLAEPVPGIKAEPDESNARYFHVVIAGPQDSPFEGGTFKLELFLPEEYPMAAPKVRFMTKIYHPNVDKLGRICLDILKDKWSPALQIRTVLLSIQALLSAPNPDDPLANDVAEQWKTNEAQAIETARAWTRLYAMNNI

Vero = assay: cells; type: functional; details: Chlorocebus sabaeus
[2] = molecular target: T2, Histone-lysine N-methyltransferase NSD2 (Homo sapiens, UniProt O96028); type: biochemical
T2 sequence (O96028 whole entry): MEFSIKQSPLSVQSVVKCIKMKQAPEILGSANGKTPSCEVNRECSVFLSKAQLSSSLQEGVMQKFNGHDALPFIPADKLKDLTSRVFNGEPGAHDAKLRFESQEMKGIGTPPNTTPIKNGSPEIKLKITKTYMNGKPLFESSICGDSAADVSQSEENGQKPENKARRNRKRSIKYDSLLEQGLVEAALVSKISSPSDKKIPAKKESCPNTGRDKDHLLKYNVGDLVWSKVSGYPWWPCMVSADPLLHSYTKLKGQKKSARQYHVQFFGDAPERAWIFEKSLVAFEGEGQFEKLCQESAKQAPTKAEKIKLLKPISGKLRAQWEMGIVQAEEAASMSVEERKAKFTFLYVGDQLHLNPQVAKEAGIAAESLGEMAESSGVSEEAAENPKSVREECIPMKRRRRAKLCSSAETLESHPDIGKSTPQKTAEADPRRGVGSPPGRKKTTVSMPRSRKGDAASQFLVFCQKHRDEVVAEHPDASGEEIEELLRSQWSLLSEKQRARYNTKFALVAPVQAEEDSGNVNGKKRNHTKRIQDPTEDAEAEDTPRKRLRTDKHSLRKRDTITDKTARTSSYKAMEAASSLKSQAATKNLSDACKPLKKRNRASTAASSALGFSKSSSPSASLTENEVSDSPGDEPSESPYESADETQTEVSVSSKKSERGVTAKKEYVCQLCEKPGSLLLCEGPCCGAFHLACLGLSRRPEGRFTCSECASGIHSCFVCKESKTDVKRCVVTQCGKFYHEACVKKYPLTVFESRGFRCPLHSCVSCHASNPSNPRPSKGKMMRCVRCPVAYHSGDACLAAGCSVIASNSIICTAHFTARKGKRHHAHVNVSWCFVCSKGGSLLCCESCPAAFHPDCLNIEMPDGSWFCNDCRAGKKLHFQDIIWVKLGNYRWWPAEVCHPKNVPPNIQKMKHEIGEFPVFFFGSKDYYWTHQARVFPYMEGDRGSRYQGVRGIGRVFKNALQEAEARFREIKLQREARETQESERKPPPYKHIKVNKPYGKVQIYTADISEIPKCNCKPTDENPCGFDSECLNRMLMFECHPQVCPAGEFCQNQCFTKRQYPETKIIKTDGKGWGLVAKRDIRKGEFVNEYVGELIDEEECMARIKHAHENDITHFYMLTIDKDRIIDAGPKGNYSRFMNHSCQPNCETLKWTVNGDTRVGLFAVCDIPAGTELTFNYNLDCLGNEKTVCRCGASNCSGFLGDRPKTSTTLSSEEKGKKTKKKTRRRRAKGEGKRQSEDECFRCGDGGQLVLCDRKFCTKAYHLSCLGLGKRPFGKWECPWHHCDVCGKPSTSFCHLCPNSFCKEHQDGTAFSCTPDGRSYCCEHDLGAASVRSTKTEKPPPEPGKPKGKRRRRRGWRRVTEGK

[3] = molecular target: FAD-linked sulfhydryl oxidase ALR (Homo sapiens, UniProt P55789); assay: inhibitors of human ALR sulfhydryl oxidase, dose response, biochemical, H2O2 detection, luminescence, cherry-pick (AID 493248)
BJ [4] = assay: cytotoxicity toward BJ-TERT fibroblasts, dose response, cell-based, RAS-independent, luminescence (AID 1933); type: functional; details: Homo sapiens
BJ [5] = assay: cells; type: functional, cell-based; details: Homo sapiens
BJ [6] = assay: cytotoxicity toward BJ-TERT-LT-ST fibroblasts, dose response, cell-based, RAS-independent, luminescence (AID 1935); type: functional; details: Homo sapiens;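 further: BJ fibroblasts immortalized with TERT plus LT and ST oncogenes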
[7] = cytotoxicity toward DRD oncogenic fibroblasts, dose response, cell-based, non-viral oncogenic, luminescence (AID 1934); type: functional; details: Homo sapiens
[8] = Luminescence Cell-Based Dose Retest to Confirm Inhibitors of Cancer Stem Cells. [Related pubchem assays (depositor defined):AID2717, AID2721]; type: functional; details: Homo sapiens
[9] = molecular target: T3, Heat shock factor protein 1 (Mus musculus, UniProt P38532); assay: HSF1 potentiators in luciferase reporter cells, confirmation, cell-based, NIH3T3, luminescence, dose retest (AID 435004); type: functional;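 further: stress induced by proteasome inhibitor MG132 added 30 min after compound; luciferase reporter driven by HSF1 response element in NIH3T3 cells; actives raise luminescence as potentiators of the MG132 stress response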
T3 sequence (P38532 whole entry): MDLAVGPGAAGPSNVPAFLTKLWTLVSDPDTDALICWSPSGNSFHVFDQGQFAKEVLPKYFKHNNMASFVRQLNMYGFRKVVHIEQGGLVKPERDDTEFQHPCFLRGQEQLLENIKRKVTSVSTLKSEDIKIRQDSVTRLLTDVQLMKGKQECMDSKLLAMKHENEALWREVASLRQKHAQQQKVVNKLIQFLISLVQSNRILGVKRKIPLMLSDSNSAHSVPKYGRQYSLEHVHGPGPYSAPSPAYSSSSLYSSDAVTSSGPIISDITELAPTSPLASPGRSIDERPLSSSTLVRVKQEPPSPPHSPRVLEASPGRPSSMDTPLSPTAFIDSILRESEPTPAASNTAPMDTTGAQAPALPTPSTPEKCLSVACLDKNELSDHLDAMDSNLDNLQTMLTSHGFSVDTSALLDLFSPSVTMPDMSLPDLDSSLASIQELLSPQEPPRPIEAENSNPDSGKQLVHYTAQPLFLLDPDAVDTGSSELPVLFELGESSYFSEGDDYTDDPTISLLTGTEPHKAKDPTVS

Genome polyprotein = Genome polyprotein (dengue virus type 2, UniProt P29990); assay: Dengue-2 NS5 methyltransferase inhibitors, primary screen, biochemical, confirmation dose response (AID 588689); type: functional
[10] = Luminescence Cell-Based Dose Confirmation HTS to Identify Activators of 5'UTR Stem-Loop Driven Alpha-Synuclein mRNA Translation in H4 Neuroglioblastoma Cells. [Related pubchem assays: 1829 (Project Summary), 1814 (Primary HTS)]; type: functional
[11] = Luminescence Cell-Based Dose Response HTS to Identify Activators of Luciferase Translation or Activity in H4 […] Cells. [Related pubchem assays: 1829 (Project Summary), 1814 (Primary HTS)]; type: functional
H4 = assay: Luminescence Cell-Based Dose Response HTS to Identify Activators of 5'UTR Stem-Loop Driven Prion Protein mRNA Translation in H4 Neuroglioblastoma Cells. [Related pubchem assays: 1829 (Project Summary), 1814 (Primary HTS)]; type: functional; details: Homo sapiens
Nonstructural protein 1 = Nonstructural protein 1 (Influenza A virus, UniProt Q194T2); type: functional, Influenza A virus (A/California/07/2009(H1N1))
[12] = molecular target: T4, Polyadenylate-binding protein 1 (Homo sapiens, UniProt P11940); assay: PABP1 MLLE–PAM2 interaction inhibitors, dose response, miRNA deadenylation inhibitor project, biochemical, fluorescence polarization, Cy5-PAM2 peptide, secondary (AID 602260); type: functional; details: read-out: IC50_Mean
[13] = molecular target: T4, Polyadenylate-binding protein 1; assay: PABP1 MLLE–PAM2 binding inhibitor potency, dose response, biochemical, fluorescence polarization, FITC-PAM2 peptide (AID 602259); type: functional; details: read-out: IC50_Mean
[14] = NIH-3T3 fibroblast cytotoxicity, dose response, cytotoxicity control, cell-based, fluorescence, Alamar Blue, secondary assay (AID 2327); type: functional;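 further: NIH-3T3 mouse fibroblasts cultured with fluconazole at 8 µg/mL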
cells [15] = type: functional, cell-based
[16] = C. albicans growth with fluconazole, confirmation, fluorescence, retest (AID 2467); type: functional, cell-based
[17] = inhibitors of intracellular T. cruzi replication, confirmation, NIH3T3 host cells, beta-gal luminescence (AID 2044); type: functional, cell-based;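 further: intracellular parasites grown in NIH/3T3 mouse fibroblasts as host cells; luminescent beta-galactosidase reporter signal from transgenic T. cruzi replicating inside host cells; inhibitors lower the luminescence signal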
cells [18] = type: functional, cell-based; remark: listed apart in the source
[19] = cytotoxicity toward NIH3T3 fibroblasts, dose response, counter-screen, cell-based, ATP luminescence, mouse fibroblasts (AID 2010); type: functional;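 further: cells exposed to compound for about 90 hours before reading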

Chain of Genome polyprotein (P29990 2492-3391 limits assumed): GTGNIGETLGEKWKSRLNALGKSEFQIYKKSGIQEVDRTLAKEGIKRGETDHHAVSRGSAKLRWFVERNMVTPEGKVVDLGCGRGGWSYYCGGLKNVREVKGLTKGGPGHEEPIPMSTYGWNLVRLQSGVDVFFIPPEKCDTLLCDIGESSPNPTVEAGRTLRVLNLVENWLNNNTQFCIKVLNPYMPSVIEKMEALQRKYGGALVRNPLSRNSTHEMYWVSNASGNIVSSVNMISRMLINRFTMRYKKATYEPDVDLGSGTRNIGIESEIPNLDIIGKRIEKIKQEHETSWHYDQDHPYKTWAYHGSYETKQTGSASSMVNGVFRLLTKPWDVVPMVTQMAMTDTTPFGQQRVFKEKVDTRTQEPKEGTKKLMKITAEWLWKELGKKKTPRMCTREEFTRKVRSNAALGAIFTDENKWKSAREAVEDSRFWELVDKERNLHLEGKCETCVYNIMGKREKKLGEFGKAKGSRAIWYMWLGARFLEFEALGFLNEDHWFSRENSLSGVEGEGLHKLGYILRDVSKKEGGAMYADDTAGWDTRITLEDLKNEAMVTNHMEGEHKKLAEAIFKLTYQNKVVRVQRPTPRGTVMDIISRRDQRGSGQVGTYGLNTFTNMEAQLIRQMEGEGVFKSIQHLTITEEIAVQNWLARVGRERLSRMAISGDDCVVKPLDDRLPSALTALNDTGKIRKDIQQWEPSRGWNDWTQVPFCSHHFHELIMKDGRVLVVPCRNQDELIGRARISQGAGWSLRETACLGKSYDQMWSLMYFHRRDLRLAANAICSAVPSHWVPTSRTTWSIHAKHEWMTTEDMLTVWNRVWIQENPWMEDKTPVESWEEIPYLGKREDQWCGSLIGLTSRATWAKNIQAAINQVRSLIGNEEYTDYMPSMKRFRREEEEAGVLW
Chain of FAD-linked sulfhydryl oxidase ALR (P55789 whole entry): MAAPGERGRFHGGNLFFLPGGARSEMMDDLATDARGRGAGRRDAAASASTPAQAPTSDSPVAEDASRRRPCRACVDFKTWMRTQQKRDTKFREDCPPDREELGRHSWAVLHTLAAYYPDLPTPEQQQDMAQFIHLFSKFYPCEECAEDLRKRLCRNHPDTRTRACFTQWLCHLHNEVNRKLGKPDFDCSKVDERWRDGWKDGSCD
T4 sequence (P11940 whole entry): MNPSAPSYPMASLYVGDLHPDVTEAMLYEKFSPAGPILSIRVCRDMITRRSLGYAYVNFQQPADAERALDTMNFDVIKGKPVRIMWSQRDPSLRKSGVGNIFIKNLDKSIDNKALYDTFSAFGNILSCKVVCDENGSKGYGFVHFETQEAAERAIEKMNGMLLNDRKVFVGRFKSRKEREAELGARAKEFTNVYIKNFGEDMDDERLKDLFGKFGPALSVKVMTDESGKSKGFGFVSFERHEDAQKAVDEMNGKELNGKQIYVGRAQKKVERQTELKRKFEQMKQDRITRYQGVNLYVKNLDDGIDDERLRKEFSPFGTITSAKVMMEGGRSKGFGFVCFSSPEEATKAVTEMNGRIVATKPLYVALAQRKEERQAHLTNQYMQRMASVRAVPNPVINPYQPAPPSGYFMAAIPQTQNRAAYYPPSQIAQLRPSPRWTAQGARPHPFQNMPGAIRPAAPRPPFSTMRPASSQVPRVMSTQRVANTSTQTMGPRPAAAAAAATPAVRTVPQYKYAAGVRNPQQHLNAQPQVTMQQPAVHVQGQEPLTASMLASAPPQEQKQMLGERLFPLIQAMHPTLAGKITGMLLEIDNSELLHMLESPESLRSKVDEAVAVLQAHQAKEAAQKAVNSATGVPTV
Chain of Nonstructural protein 1 (Q194T2 whole entry): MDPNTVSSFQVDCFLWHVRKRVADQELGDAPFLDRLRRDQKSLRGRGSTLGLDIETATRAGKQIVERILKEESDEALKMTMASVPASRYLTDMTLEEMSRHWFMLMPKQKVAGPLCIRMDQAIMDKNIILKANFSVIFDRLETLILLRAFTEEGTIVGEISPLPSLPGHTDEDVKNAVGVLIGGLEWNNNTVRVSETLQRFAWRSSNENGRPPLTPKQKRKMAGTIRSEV

COc1ccc(NC(=O)C[S+]([O-])CC(=O)Nc2cc(Cl)ccc2OC)cc1 (centres undefined)
IC50 [1]: > 20 µM (inactive)

Cc1nc(Cl)sc1C(=O)Nc1cc(F)cc(F)c1
CC50 (Vero): > 25 µM (active)

COc1ccc(C(=O)Cn2c(C(C)=O)nc3ccccc32)cc1
CC50 (Vero): 11.5 µM (active)

CCCCCCNc1c([N+](=O)[O-])cc(C)cc1[N+](=O)[O-]
AC50 [2]: > 20 µM (inactive)

CC(=O)Nc1ccc2c(c1)nc1n2CCSC1
AC50 [3]: 0.34 µM (active)

Cc1nc(C(=O)N2CCCC(Nc3ccc(C)c(C)c3)C2)cs1 (centres undefined)
AC50 [3]: 0.479 µM (active)

NC1=NC[C@H](Cc2ccc(O)cc2)N1CCc1cc(C(F)(F)F)cc(C(F)(F)F)c1
IC50 [1]: > 20 µM (inactive)

COc1ccc(-n2c(SCC(=O)c3c(N)n(C)c(=O)n(C)c3=O)nc3ccccc32)cc1
EC50 (BJ [4]): > 150 µM (not active) | EC50 (BJ [5]): > 150 µM (not active) | EC50 (BJ [6]): > 150 µM (inconclusive) | EC50 [7]: > 150 µM (not active)

Cc1nc2ccccc2c(=O)n1NC(=O)/C=C/c1ccc(Br)cc1
IC50 [1]: > 20 µM (inactive)

CCN(CC)CCOc1ccc(/C(=C(/Cl)c2ccccc2)c2ccccc2)cc1 [ENCLOMIPHENE]
AC50 [8]: 1.6 µM (active) | IC50 [1]: > 20 µM (inactive)

COc1ccccc1N1CCN(S(=O)(=O)c2cccc(F)c2)CC1
AC50 [3]: 28.8 µM (active)

O=C(O)c1cc([N+](=O)[O-])c(NCCC2=CCCCC2)c([N+](=O)[O-])c1
EC50 [9]: > 260 µM (inactive) | IC50 (Genome polyprotein): 72.8 µM (active)

O=C(Nc1cc(N2CCCCC2)ncn1)c1ccc(F)cc1
EC50 [10]: > 120 µM (not active) | EC50 [11]: 17.3 µM (active) | EC50 (H4): 14.1 µM (active)

N#CC1=C2Sc3ccccc3N2CCCC1=O
EC50 [10]: 0.318 µM (active) | EC50 [11]: 59 µM (active) | EC50 (H4): 19.7 µM (active)

O=C(O)c1ccccc1N=N/C(=N/Nc1cc(S(=O)(=O)O)ccc1O)c1ccccc1
IC50 (Nonstructural protein 1): 21.9 µM (active) | IC50 (Genome polyprotein): 19.1 µM (active) | AC50 [2]: > 20 µM (inactive)

O=C(O)c1cc(N/N=C/c2cccs2)ccc1Cl
EC50 [10]: 19 µM (active) | EC50 [11]: 0.632 µM (active) | EC50 (H4): 3.38 µM (active)

CCOC(=O)N1CCN(C(=O)CCN2C(=O)/C(=C\c3ccccc3OC)SC2=S)CC1
CC50 (Vero): > 25 µM (active)

O=C(CSc1nc(O)c(Cc2ccccc2)c(O)n1)Nc1nnc(SCc2ccccc2)s1
IC50 (Genome polyprotein): 43.3 µM (active) | IC50 [12]: > 66 µM (inactive) | IC50 [13]: > 66 µM (inactive)

O=C(/C=C/c1ccccc1Cl)c1ccc[nH]1
EC50 [10]: 44.6 µM (active) | EC50 [11]: 24.3 µM (active) | EC50 (H4): 38.9 µM (active)

CCC1(C)NC(=O)N(CC(=O)N2CCC(Cc3ccccc3)CC2)C1=O (centres undefined)
IC50 [1]: > 20 µM (inactive)

Oc1ccc(CN2CCN(Cc3ccccc3)CC2)c2cccnc12
EC50 [14]: > 160 µM (inconclusive) | EC50 (cells [15]): > 350 µM (not active) | EC50 [16]: > 38 µM (not active) | EC50 [17]: 2.03 µM (active) | EC50 (cells [18]): > 350 µM (not active) | EC50 [19]: > 60 µM (not active) | IC50 [1]: > 20 µM (inactive) | IC50 (Nonstructural protein 1): 11.2 µM (active)

NC(=O)NC(CC(=O)NNC(=O)c1ccccn1)c1ccccc1Cl (centres undefined)
IC50 [1]: > 20 µM (inactive)

CC(C)(C)NC(=O)C(c1ccncc1)N(Cc1ccco1)C(=O)c1ccc(-c2ccccc2)[nH]1 (centres undefined)
EC50 [10]: 8.7 µM (active) | EC50 [11]: > 30 µM (not active) | EC50 (H4): 15.2 µM (active)
